Drawing on patent US20230159496A1, “COMPOUNDS AND METHODS FOR MODULATING SPLICING” (REMIX THERAPEUTICS INC., priority 2020, published 2023), this text covers AC50 and IC50 for 13 compounds.

Where two headings read alike, the source gives them in different places.

Holding throughout (type): cell-based
One assay deals with HTT mRNA. Kind of assay: Splicing assay (RT-qPCR) monitoring HTT canonical junction (CJ) and alternative junction (AJ) mRNA isoforms. The settings on record: A673 or K562 cells, 24 h treatment, top dose 10 uM. Put shortly:
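A673 or K562 cells treated 24 h at 37 °C with an 11-point 3-fold dilution (top 10 uM final, DMSO ≤0.25%). Lysates assayed by one-step RT-qPCR for HTT CJ and AJ isoforms, normalized to GAPDH, GUSB (K562) or PPIA (A673).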

The next assay relates to HTT CJ mRNA. Kind of assay: Gene panel canonical junction qPCR assay, HTT. The settings on record: decrease in CJ mRNA levels, gene panel; read-out: HTT IC50. Put shortly: (§1)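 A673 or K562 cells were treated for 24 h at 37 °C with an 11-point 3-fold dilution, top dose 10 uM, DMSO ≤0.25%. Canonical junction mRNA in lysates was quantified by one-step RT-qPCR and normalized to GAPDH, GUSB or PPIA.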
In general terms: Quantitative PCR measures a nucleic acid by following its amplification.

The subject of the next assay is SMN2 CJ mRNA. Kind of assay: Gene panel canonical junction qPCR assay, SMN2. The settings on record: decrease in CJ mRNA levels, gene panel; read-out: SMN2 IC50. Put shortly:
as §1

Another assay has as its system Target C CJ mRNA. Kind of assay: Gene panel canonical junction qPCR assay, Target C. The following applies: decrease in CJ mRNA levels, gene panel; read-out: Target C IC50. Put shortly:
as §1

Setting [1] is: decrease in CJ mRNA (50% response), read-out: HTT CJ AC50.
Where [2] appears, read: increase in AJ mRNA (50% response), read-out: HTT AJ AC50.

The AC50 is the concentration giving half of the maximal activity seen. Usually IC50 stands for the point on the concentration scale where inhibition reaches its midpoint. With `Cc1nc2c(F)cc(-c3ccc4c(=O)n(C5CCN(C)CC5)cnc4c3)cc2s1` [Compound 301], the half-maximal activity concentration (AC50) with HTT mRNA (setting [1]) and in the assay on HTT mRNA (setting [2]) was 1000 to 10000 nM throughout. Besides, the IC50 in the assay with HTT CJ mRNA was in the range of 1000 to 10000 nM; in the assay on SMN2 CJ mRNA, 1000 to 10000 nM; in the assay with Target C CJ mRNA, 1 to 10 µM.

In the case of `Cc1cn2cc(-n3cnc4cc(N5CCN(C)CC5)ccc4c3=O)cc(F)c2n1` [Compound 229, 3-(8-fluoro-2-methylimidazo[1,2-a]pyridin-6-yl)-7-(4-methylpiperazin-1-yl)quinazolin-4(3H)-one], the AC50 in the assay with HTT mRNA (setting [1]) and in the assay on HTT mRNA (setting [2]) was over 10000 nM each time. Moreover, the IC50 in the assay on HTT CJ mRNA is over 10000 nM; with SMN2 CJ mRNA, over 10000 nM; in the assay with Target C CJ mRNA, over 10 µM.

For the compound `Cc1cn2nc(-c3ccc4c(=O)n(C5CCN(C)CC5)cnc4c3)nc2c(C)n1` [Compound 288, 7-{6,8-dimethyl-[1,2,4]triazolo[1,5-a]pyrazin-2-yl}-3-(1-methylpiperidin-4-yl)quinazolin-4-one], the AC50 with HTT mRNA (setting [1]) and in the assay on HTT mRNA (setting [2]) was 1000 to 10000 nM in each case. Further, the IC50 in the assay on HTT CJ mRNA was 1000 to 10000 nM; in the assay with SMN2 CJ mRNA, 1000 to 10000 nM; in the assay with Target C CJ mRNA, 1 to 10 µM.

Consider `Cc1cn2nc(-c3cc(F)c4c(=O)n(C5CCN(C)CC5)cnc4c3)cc(C)c2n1` [Compound 242, 7-(2,8-dimethylimidazo[1,2-b]pyridazin-6-yl)-5-fluoro-3-(1-methylpiperidin-4-yl)quinazolin-4(3H)-one], for which the AC50 with HTT mRNA (setting [1]) and in the assay with HTT mRNA (setting [2]) was under 100 nM in each case. The IC50 in the assay on HTT CJ mRNA was under 100 nM; with SMN2 CJ mRNA it was under 100 nM; in the assay with Target C CJ mRNA it was 0.1 to 1 µM.

`Cc1cn2cc(-c3ccc4c(=O)n(C5CCN(C)CC5)cnc4c3F)cc(F)c2n1` [Compound 227, 8-fluoro-7-(8-fluoro-2-methylimidazo[1,2-a]pyridin-6-yl)-3-(1-methylpiperidin-4-yl)quinazolin-4(3H)-one]: the AC50 in the assay on HTT mRNA (setting [1]) and in the assay on HTT mRNA (setting [2]) was 1000 to 10000 nM each time. The IC50 in the assay with HTT CJ mRNA was 1000 to 10000 nM; in the assay on SMN2 CJ mRNA, 100 to 1000 nM; in the assay with Target C CJ mRNA, over 10 µM.

Consider `Cn1cc2cc(-c3ccc4c(=O)n(C5CCNCC5)ncc4c3)cc(F)c2n1` [Compound 249], for which the AC50 in the assay on HTT mRNA (setting [1]) and in the assay with HTT mRNA (setting [2]) was 1000 to 10000 nM in each case. The figures for the IC50 with HTT CJ mRNA, in the assay with SMN2 CJ mRNA and in the assay with Target C CJ mRNA were 1000 to 10000 nM, 1000 to 10000 nM and 1 to 10 µM, respectively.

As for `Cc1cn2cc(-c3ccc4c(=O)n(C5CCN(C)CC5)cnc4c3)ncc2n1` [Compound 308], the AC50 with HTT mRNA (setting [1]) and in the assay with HTT mRNA (setting [2]) was 1000 to 10000 nM each time. Also, the IC50 in the assay on HTT CJ mRNA is 1000 to 10000 nM; in the assay on SMN2 CJ mRNA, 100 to 1000 nM; in the assay on Target C CJ mRNA, 1 to 10 µM.

For `Cn1cc2ccc(-c3ccc4c(=O)n(C5CCNCC5)ncc4c3)cc2n1` [Compound 263], the AC50 in the assay with HTT mRNA (setting [1]) and with HTT mRNA (setting [2]) was over 10000 nM throughout. The IC50 in the assay on HTT CJ mRNA is over 10000 nM; with SMN2 CJ mRNA, over 10000 nM; in the assay with Target C CJ mRNA, over 10 µM.

As to `Cc1cn2nc(-c3cc(F)c4c(=O)n(C5CCNCC5)cnc4c3)cc(C)c2n1` [Compound 243, 7-(2,8-dimethylimidazo[1,2-b]pyridazin-6-yl)-5-fluoro-3-(piperidin-4-yl)quinazolin-4(3H)-one], the AC50 with HTT mRNA (setting [1]) and in the assay on HTT mRNA (setting [2]) was under 100 nM each time. Also, the IC50 is under 100 nM with HTT CJ mRNA, under 100 nM in the assay with SMN2 CJ mRNA and under 0.1 µM with Target C CJ mRNA.

For `Cc1cn2nc(-c3ccc4c(=O)n(C5CCNCC5)ncc4c3)cc2c(C)n1` [Compound 260], the AC50 in the assay on HTT mRNA (setting [1]) and in the assay on HTT mRNA (setting [2]) was 100 to 1000 nM in each case. The values for the IC50 in the assay with HTT CJ mRNA, in the assay with SMN2 CJ mRNA and with Target C CJ mRNA were 100 to 1000 nM, 100 to 1000 nM and 1 to 10 µM, respectively.

In the case of `Cc1cn2cc(-c3ccc4c(=O)n(C5CCNCC5)cnc4c3)c(C)cc2n1` [Compound 244], the AC50 in the assay on HTT mRNA (setting [1]) and in the assay on HTT mRNA (setting [2]) was over 10000 nM each time. The IC50 with HTT CJ mRNA is over 10000 nM; in the assay on SMN2 CJ mRNA, 100 to 1000 nM; with Target C CJ mRNA it was over 10 µM.

As to `Cc1cn2cc(-c3ccc4c(c3)CCN(C3CCNCC3)C4=O)cc(C)c2n1` [Compound 217], the AC50 in the assay on HTT mRNA (setting [1]) and in the assay with HTT mRNA (setting [2]) was 1000 to 10000 nM each time. The IC50 in the assay with HTT CJ mRNA was 1000 to 10000 nM; in the assay with SMN2 CJ mRNA, 100 to 1000 nM; in the assay on Target C CJ mRNA, over 10 µM.

As to `Cc1cn2nc(-c3ccc4c(=O)n(C5CCNCC5)cnc4c3)cc(C)c2n1` [Compound 181], the AC50 in the assay with HTT mRNA (setting [1]) and with HTT mRNA (setting [2]) was 100 to 1000 nM in each case. Moreover, the IC50 is 100 to 1000 nM with HTT CJ mRNA, under 100 nM in the assay with SMN2 CJ mRNA and 0.1 to 1 µM in the assay with Target C CJ mRNA.
